One data set has as its system M. tuberculosis H37Rv. Description: M. tuberculosis growth inhibition assay. The following applies: read-out: Mtb IC90; concentration that inhibits 90% of growth, OD600, 5 days; ± standard error.
Another data set relates to B. subtilis. Description: B. subtilis growth inhibition assay. Type of data set: cell-based, Bacillus subtilis. The following applies: read-out: Bs IC50.
The conditions of data set [1]: for Rabbit 1 concentration in lung tissue / Rabbit 2 concentration in lung tissue: in vivo; for amount formed on a per-site basis in lung tissue: lung concentration divided by number of equivalent adamantyl sites.
For the next data set, the system named is M. smegmatis. The data set can be described thus: M. smegmatis growth inhibition assay. Type of data set: cell-based, Mycobacterium smegmatis. The following applies: read-out: Ms IC50, OD600, 48 h, ± standard error.
The subject of a further data set is E. coli (K12). Description: E. coli growth inhibition assay. It counts as cell-based, Escherichia coli. The following applies: read-out: Ec IC50.
The conditions of data set [2]: rats; cited from earlier work.
The conditions of data set [3]: calculated, Pipeline Pilot program; cited from earlier work.
The test system of the next data set is human CYP2D6. The following applies: 30 min incubation with CYP2D6; cited from earlier work.
The subject of another data set is human CYP2C19. The conditions noted are these: 30 min incubation with CYP2C19; cited from earlier work.
For data set [4] the following is noted: dogs; cited from earlier work.
Setting [5] is: growth inhibition, OD600, 12 h, ± standard error.

The text below walks through data of PMC8918016 (ACS infectious diseases, 2021).

Usually IC90 stands for the concentration at which the effect reaches the 90% level. A word on the IC50: it is the concentration that inhibits the measured activity by half.

Read-outs that look alike come from different tables or passages of the source.

For `CC(C)=CCC/C(C)=C/C=NO` [Compound 15a, geranial oxime], in the data set with M. tuberculosis H37Rv, the IC90 is above 25 µM. Further, the 50% inhibitory concentration (IC50) in the data set with B. subtilis (setting [5]), in the data set on M. smegmatis and with E. coli (K12) (setting [5]) was above 500 µM throughout. Besides, the “Rabbit 1 concentration in lung tissue” value in [1] is “BLQ”. Also, the “Rabbit 2 concentration in lung tissue” value in data set [1] is on record as “BLQ”.
As to `ON=C1C2CC3CC(C2)CC1C3` [Compound 16, adamantan-2-one oxime], the 90% effect concentration (IC90) in the data set with M. tuberculosis H37Rv was above 25 µM. Further, in the data set with B. subtilis (Bacillus subtilis, 12 h), the half-maximal inhibitory concentration (IC50) was above 500 µM. Further, in data set [1], the “Rabbit 1 concentration in lung tissue” value is reported as “BLQ” and the “Rabbit 2 concentration in lung tissue” value is recorded as “BLQ”. In addition, the half-inhibitory concentration (IC50) in the data set with E. coli (K12) (Escherichia coli, 12 h) is above 500 µM.
On to `CC(C)=CCC/C(C)=C/CNCCNC1[C@H]2C[C@@H]3C[C@H](C2)C(O)[C@H]1C3` (stereo partly drawn) [Compound 24, (1R,3S,5S,7R)-4-((2-(((E)-3,7-Dimethylocta-2,6-dien-1-yl)-amino)ethyl)amino)adamantan-2-ol], for which, in the data set on M. tuberculosis H37Rv, the concentration for an effect of 90% (IC90) came out at 6.2 ± 0.27 µM. Besides, the IC50 with B. subtilis (Bacillus subtilis, 12 h) stood at 166 ± 0.5 µM; with E. coli (K12) (Escherichia coli, 12 h), 158 ± 4.5 µM. Moreover, the “Rabbit 1 concentration in lung tissue” value in [1] (female, New Zealand White) is on record as 820 (170) ng/g. In addition, the “Rabbit 2 concentration in lung tissue” value in data set [1] (female, New Zealand White) is reported as 2100 (680) ng/g. Further, the “amount formed on a per-site basis in lung tissue” value in data set [1] is given as ~ 1 μM.
As for `CC(C)=CCC/C(C)=C/C=O` [Compound 13, geranial], in the data set on M. tuberculosis H37Rv, the IC90 is above 25 µM. Further, the concentration for half-maximal inhibition (IC50) in the data set on B. subtilis (setting [5]), in the data set with M. smegmatis and in the data set on E. coli (K12) (setting [5]) was above 500 µM in each case. In data set [1], the “Rabbit 1 concentration in lung tissue” value was “BLQ”. The “Rabbit 2 concentration in lung tissue” value in [1] was “BLQ”.
Turning to `CC(C)=CCC/C(C)=C/CNCCN` [Compound 20, geranylethylenediamine], in the data set on M. tuberculosis H37Rv, the IC90 is above 25 µM. Also, the IC50 with B. subtilis (setting [5]), with M. smegmatis and with E. coli (K12) (setting [5]) was above 500 µM in each case. For the same molecule, in data set [1], the “Rabbit 1 concentration in lung tissue” value was 310(14) ng/g. Moreover, in data set [1], the “Rabbit 2 concentration in lung tissue” value is listed as 330 (54) ng/g.
As to `C/C(=C\CC/C(C)=C/CNCCNC1C2CC3CC(C2)CC1C3)CO` (stereo not drawn) [Compound 9, (2E,6E)-8-((2-(((1r,3r,5r,7r)-Adamantan-2-yl)amino)ethyl)-amino)-2,6-dimethylocta-2,6-dien-1-ol], the concentration for an effect of 90% (IC90) with M. tuberculosis H37Rv was above 24 µM. In addition, the half-maximal inhibitory concentration (IC50) in the data set on B. subtilis (setting [5]) is above 500 µM; in the data set on M. smegmatis, 55 ± 1.4 µM; in the data set with E. coli (K12) (setting [5]) it was 267 ± 4.3 µM. The “Rabbit 1 concentration in lung tissue” value in data set [1] is listed as 720 (47) ng/g. For the same molecule, the “Rabbit 2 concentration in lung tissue” value in data set [1] was 850 (190) ng/g.
As to `CC(C)=CCC/C(C)=C/CNCCNC1C2CC3CC(C2)CC1C3` (stereo not drawn) [Compound 1, SQ109], the “[14C-SQ109] half-life” value in [2] and in [4] was above 5 h each time. Besides, the “pKa (adamantylamine NH)” value in data set [3] was 12.7. In data set [3], the “pKa (geranylamine NH)” value is given as 5.63. In addition, the concentration for an effect of 90% (IC90) in the data set with M. tuberculosis H37Rv came out at 1 ± 0.05 µM. Also, the IC50 with B. subtilis (Bacillus subtilis, 12 h) is 16 ± 0.14 µM; in the data set with E. coli (K12) (Escherichia coli, 12 h) it was 15 ± 0.26 µM. The SQ109 remaining in the data set on human CYP2D6 is given as 0.8%; with human CYP2C19, 45%. Besides, the “Rabbit 1 concentration in lung tissue” value in [1] (female, New Zealand White) was 37000 (4600) ng/g. For the same molecule, the “Rabbit 2 concentration in lung tissue” value in [1] (female, New Zealand White) is on record as 45000 (21000) ng/g.
Regarding `O=C1C2CC3CC(C2)CC1C3` [Compound 19, 2-adamantanone], the IC90 in the data set with M. tuberculosis H37Rv is above 25 µM. For the same molecule, the concentration for half-maximal inhibition (IC50) was above 500 µM in the data set on B. subtilis (Bacillus subtilis, 12 h) and above 500 µM with E. coli (K12) (Escherichia coli, 12 h).
Take `NCCNC1C2CC3CC(C2)CC1C3` (stereo not drawn) [Compound 7, N′-adamantylethylenediamine]: in the data set on M. tuberculosis H37Rv, the IC90 was above 25 µM. In addition, the concentration for half-maximal inhibition (IC50) with B. subtilis (setting [5]), in the data set with M. smegmatis and with E. coli (K12) (setting [5]) was above 500 µM in each case. Also, the “Rabbit 1 concentration in lung tissue” value in data set [1] is given as 5500 (360) ng/g. Further, the “Rabbit 2 concentration in lung tissue” value in data set [1] is given as 7700 (2200) ng/g.
For the molecule `CC(C)=CCC/C(C)=C/C(=O)O` [Compound 14, geranic acid], the IC90 in the data set with M. tuberculosis H37Rv is above 25 µM. Besides, the IC50 in the data set on B. subtilis (Bacillus subtilis, 12 h) is above 500 µM. In addition, in [1], the “Rabbit 1 concentration in lung tissue” value is “BLQ” and the “Rabbit 2 concentration in lung tissue” value is reported as “BLQ”. Also, the concentration for half-maximal inhibition (IC50) with E. coli (K12) (Escherichia coli, 12 h) was above 500 µM.
Turning to `NC1C2CC3CC(C2)CC1C3` (stereo not drawn) [Compound 18, 2-aminoadamantane], the IC90 in the data set on M. tuberculosis H37Rv is above 25 µM. In the data set on B. subtilis (Bacillus subtilis, 12 h), the IC50 was above 500 µM. Besides, in data set [1] (female, New Zealand White), the “Rabbit 1 concentration in lung tissue” value is listed as 170(49) ng/g and the “Rabbit 2 concentration in lung tissue” value is on record as 270(27) ng/g. The IC50 in the data set with E. coli (K12) (Escherichia coli, 12 h) is above 500 µM.
In the case of `CC(C)=CCC/C(C)=C/CN` [Compound 17, geranylamine], the IC90 with M. tuberculosis H37Rv is above 25 µM. Moreover, the IC50 with B. subtilis (setting [5]), in the data set on M. smegmatis and with E. coli (K12) (setting [5]) was above 500 µM each time. The “Rabbit 1 concentration in lung tissue” value in [1] is recorded as “BLQ”. Moreover, in [1], the “Rabbit 2 concentration in lung tissue” value is reported as “BLQ”.
For `CC(C)=CCC/C(C)=C/CNCCNC1C2CC3CC1CC(C2)C3O` (stereo not drawn) [Compound 23, (1r,3r,5r,7r)-6-((2-(((E)-3,7-Dimethylocta-2,6-dien-1-yl)-amino)ethyl)amino)adamantan-2-ol], in the data set with M. tuberculosis H37Rv, the concentration for an effect of 90% (IC90) was above 25 µM. For the same molecule, the 50% inhibitory concentration (IC50) in the data set on B. subtilis (setting [5]) amounted to 184 ± 4.5 µM. In data set [1], the “amount formed on a per-site basis in lung tissue” value turned out to be 6.8 µM, the “Rabbit 1 concentration in lung tissue” value is listed as 1200 (210) ng/g and the “Rabbit 2 concentration in lung tissue” value is recorded as 3500 (1200) ng/g. The IC50 with M. smegmatis stood at 68 ± 2.5 µM. In the data set on E. coli (K12) (setting [5]), the IC50 stood at 52 ± 2.5 µM.
`C/C(=C\CNCCNC1C2CC3CC(C2)CC1C3)CCC(=O)C(C)C` (stereo not drawn) [Compound 12, (E)-8-((2-(((1r,3r,5r,7r)-adamantan-2-yl)amino)-ethyl)amino)-2,6-dimethyloct-6-en-3-one]: the 90% effect concentration (IC90) in the data set on M. tuberculosis H37Rv was 17 ± 4.5 µM. The 50% inhibitory concentration (IC50) with B. subtilis (setting [5]) was determined as 176 ± 5.1 µM; with M. smegmatis it was 22 ± 1.5 µM; in the data set with E. coli (K12) (setting [5]), 57 ± 2.3 µM. Moreover, the “Rabbit 1 concentration in lung tissue” value in data set [1] is recorded as 91 (20) ng/g. In addition, the “Rabbit 2 concentration in lung tissue” value in data set [1] was 220 (110) ng/g.
